Source: patent US9034876B2, “Treatment of chronic inflammation with a 1,2,4-triazolo [1,5a] pyridine derivative” (Cephalon, Inc., priority 2010, dated 2015)
Where two headings read alike, the source gives them in different places.

Key:
[1] = test system: pro-inflammatory cytokines in paw extracts; experiment: CAIA model, paw cytokines (Luminex bead assay); type: in vivo, female DBA/1 mice
Description: DBA/1 female mice were injected i.v. with purified anti-collagen type II antibodies, then given 25 μg of LPS i.p. three days later to induce arthritis by day 5. Mice that met the arthritis criteria score of 1 per paw were entered into the study.
The cytokines were measured using known procedures [32].
(§1) Briefly, the front (including carpus) and back (including tarsus) right paws were collected and frozen in dry-ice cooled isopentane and stored at −80° C. until use. The paws were cut to 2 mm×2 mm segments and kept on dry-ice in round bottom polypropylene tubes. Seven hundred microliters tissue extraction buffer containing protease inhibitor cocktail (Calbiochem, San Diego, Calif.) and Halt phosphatase inhibitor cocktail (Thermo Scientific, Rockford, Ill.) or Roche phosphatase inhibitor cocktail (Roche, Indianapolis, Ind.) in tissue extraction reagent I (Invitrogen, Carlesbad, Calif.) were added to each sample. Samples were homogenized frozen using a PT 10-35 Polytron homogenizer. After homogenization, samples were centrifuged at 4° C. for 2000×g for 10 minutes and supernatants re-centrifuged at 4° C. at maximum speed, 14,000×g, for 15 minutes. Supernatants were carefully removed to avoid picking up the top layer of lipids/adipose debris. Protein concentration was measured using a BCA protein assay (Pierce, Rockford, Ill.) and adjusted to 3 mg/ml. A minimum of 25 μl of this extraction was used in the above described protocol using the mouse cytokine 10-plex bead kit (Invitrogen, Carlsbad, Calif.) or phosphorylated STAT1, 3, 5a/b, 3-plex kit (Invitrogen, Carlsbad, Calif.).

[2] = test system: collagen-induced arthritis (CIA); experiment: CIA model, joint histopathology; type: in vivo, female DBA/1 mice
Description: Tissues were also stained with Safranin-O to detect matrix degeneration and this information was used for scoring. The data in the figure represents mean±SEM, statistics were performed using Prism® software and 2-way ANOVA analysis, *p<0.05, **p<0.01, ***p<0.001. H&E and safranin-O stained paraffin wax embedded carpus and tarsus sections were scored by a board certified, independent pathologist for the criteria described in the materials and methods. Tabulated data represent mean±SD values for the tarsus only. Statistics were performed using 2-way ANOVA analysis, *p<0.05; **p<0.01; ***p<0.001, N=5 mice per group tested. At the end of each experiment, front and hind paws (including carpus and tarsus) were removed from the body of the animal for histological analysis. Skin from the ends of the digits was removed and the metatarsal region skin perforated using surgical scissors to allow full decalcification. Samples followed a decalcification procedure using formic acid as described elsewhere [21, 22]. After 7-10 days of decalcification, samples were washed for 2 hours in distilled water and stored in 70% ethanol at 4° C. until ready to be processed. Samples were paraffin embedded, sectioned and stained with Hematoxylin and Eosin (H&E) stain, also Safranin-O for matrix degradation (images not shown, used by pathologist for scoring). All histology work was performed at the Wistar Institute (Philadelphia, Pa.). […] A total of five mice from each group were analyzed via histopathology, 10× representative images are shown for each group tested.

[3] = target: EGFR (Homo sapiens, UniProt P00533); experiment: Kinase profiling panel, EGFR; type: binding; conditions: 1 μM
Description: The ability of Compound A to inhibit other members of the kinome was also assessed using binding assays for a panel of 402 kinases [25].

[4] = test system: JAK2 (STAT5/pSTAT5 in HEL92 tumor extracts); experiment: In vivo pharmacodynamic assay, HEL92 tumor extracts; set-up: species or system mice; conditions: 55 mg/kg p.o., 2 hours
Description: Levels of STAT5 and pSTAT5 were quantitated via western blot. Each lane represents an individual sample.

[5] = target: human TYK2 (Homo sapiens, UniProt P29597); experiment: TYK2 kinase enzyme assay, TRF detection; type: biochemical; conditions: relative to JAK2
Description: (§2) The kinase activity of baculovirus-expressed human JAK kinases (JAK1, JAK2, JAK3 or TYK2) was measured using the time-resolved fluorescence (TRF) detection system as described elsewhere [17]. Each 96-well Costar high binding plate (Corning, Corning, N.Y.) was coated with 100 μl/well of 10 μg/ml neutravidin (Pierce Biotechnology, Rockford, Ill.) in TBS at 37° C. for 2 h, followed by 100 μl/well of 1 μg/ml 15-mer peptide substrate (biotinyl-amino-hexanoyl-[sequence]-amide, Infinity Biotech Research and Resource, Aston, Pa.) at 37° C. for 1 h. The kinase assay mixture (total volume=100 μl/well) consisting of 20 mM HEPES (pH 7.2), ATP (Km level for each kinase), 1 mM MnCl2, 0.1% BSA, and test Compound (diluted in DMSO; 2.5% DMSO final in assay) was added to the assay plate. The concentrations of ATP used were as follows: 0.2 μM ATP for JAK1, JAK2 and TYK2; 0.1 μM ATP for JAK3. Enzyme was added and the reaction was allowed to proceed for 20 min at RT. […] Plates were agitated for 10 min and the fluorescence of the resulting solution measured using the PerkinElmer EnVision® 2102 or 2104 multi-label plate reader. IC50 values were determined using the 4-parameter logistic model in XLFit® 4 (IDBS, Ltd., Guildford, UK).

[6] = test system: panel of 402 kinases; experiment: Kinome binding assays, selectivity panel; conditions: test concentration 1 μM
[7] = Compound quantification (PK) in plasma, paw and spleen of CAIA mice; type: in vivo; conditions: DBA/1, mouse, oral, day 20, mean±SEM, N=3; for concentration at 2 h: 2 hrs post-administration; for concentration at 6 h: 6 hrs post-administration
Description: FIG. 2B: Depicts the results of a PK (pharmacokinetic) study of Compound A, 55 mg/kg, 30 mg/kg and 10 mg/kg, p.o., s.i.d. (once daily), in the plasma, paw and spleen of treated mice, N=3 mice per group tested. The data shown in the figure represents the mean±SEM (standard error of the mean).
While the level of Compound A in the target tissue, i.e., the paw, was relatively low, the levels of Compound A were relatively constant between the two time points for the 55 mg/kg treatment group. […] The data (mean±SEM, N=3) represented in FIG. 2B is tabulated below:
Plasma and protein extraction from paw and spleen samples were submitted for quantitative analysis to determine the respective compound concentrations. Blood samples were collected into heparinized tubes and placed on wet ice until centrifuged (16,000×g, 5 minutes) to separate the plasma. Supernatant was collected and stored at −20° C. pending analysis. At the time of analysis, two volumes of cold acetonitrile containing an internal standard (alprenolol) were added to each sample which were then vortexed and centrifuged. The supernatants were removed, placed into an auto-sampler vial and the amount of compound present in the samples was analyzed by liquid chromatograph/mass spectrometry (LC-MS-MS). The concentration of compound in the samples was quantified against a mouse plasma standard curve made via serial dilution in a concentration range from 5 to 20,000 ng/mL. Samples containing concentrations greater than 10% above the top of the standard curve were diluted 1:10 with acetonitrile. The limit of detection for plasma, paw and spleen were <10 ng/ml.

[8] = test system: CB11-specific, IFNγ secreting T cells; experiment: CIA model, ex vivo IFNγ T-cell Elispot of splenocytes; type: in vivo, female DBA/1 mice; conditions: four weeks
Text: FIG. 4D: Depicts IFNγ Elispot® results from stimulated splenocytes from treated mice challenged with collagen type II fragment (CB11), OVA or media alone. The Elispot images shown in the figure are representative of each treatment group and the bar graph represents data using four mice from each treatment group. Spots were counted using a C.T.L. Immunospot Elispot scanner and spot counting software.
For CIA experiments, Millipore nitrocellulose IP filter plates (Millipore, Billerica, Mass.) were coated with either anti-mouse IFNγ (AN18, MabTech, Mariemont, Ohio) or anti-mouse IL-4 (11B11, eBioscience, San Diego, Calif.) at 7 μg/ml or 2 μg/ml, respectively, in sterile PBS at 60 μl per well and incubated for 3 hours at RT or overnight at 4° C. Coated wells were washed with PBS plus 0.1% Tween-20 and patted semi-dry before blocking using complete media for at least 1 hour before use. Purified mouse collagen type II (Chrondrex, Redmond, Wash.), type I (Chrondrex, Redmond, Wash.) or third party control chicken ovalbumin (OVA) (Sigma, St. Louis, Mo.) were used to challenge 1 million processed splenocytes per well at 10 μg/ml of total antigen concentration. Media alone were used as background controls, OVA as third party controls and PMA plus Ionomycin as positive controls for IFNγ and IL-4 release by Th1 and Th2 cells, respectively.

[9] = target: T1, human JAK1 (Homo sapiens, UniProt P23458); experiment: JAK1 kinase enzyme assay, TRF detection; type: biochemical; conditions: relative to JAK2
T1 construct: host or cells: baculovirus expression
Description: as §2

[10] = test system: phospho-STAT3; experiment: CAIA model, paw phospho-STAT3 (Luminex bead assay); type: in vivo, female DBA/1 mice; conditions: for reduction in paw pSTAT3 compared with Dex: within 24 hours of treatment (day 6-7); for phospho-STAT3 levels in the paw: 55 mg/kg
Description: DBA/1 female mice were injected i.v. with purified anti-collagen type II antibodies, then given 25 μg of LPS i.p. three days later to induce arthritis by day 5. Mice that met the arthritis criteria score of 1 per paw were entered into the study. Compound A was provided orally, b.i.d., for all doses tested; Dex was provided at 1.5 mg/kg three times a week, i.p.; and vehicle (PEG400+1% DMSO) was provided orally.
The graphed data was generated using Luminex® bead kits, concentration in units per ml per 3 mg of total protein as determined by the BSA assay. The graphed data represents mean±SEM, statistics were performed using 2-way ANOVA analysis.
To investigate the effect of Compound A on levels of phosphorylated STATs and cytokines in the paws of treated mice, a method was developed whereby synovial fluid and cellular joint extracts could be obtained from the paws and ankles of diseased animals for analysis using multiplex bead arrays [32]. […] Consequently, multiplex analysis was used as the primary method of measuring phosphorylated STATs for all experiments described herein.
as §1

[11] = test system: collagen-antibody-induced arthritis (CAIA); experiment: CAIA model, joint histopathology scores; type: in vivo, female DBA/1 mice; conditions: compared to vehicle controls
Description: Tissues were also stained with Safranin-O to evaluate matrix degeneration. Five representative mice from each group were sent for histological analysis and graded according to a scoring method described herein. The data in the figures represent mean±SEM, all statistics were performed using Prism® software and 2-way ANOVA analysis. H&E and Safranin-O stained paraffin wax embedded carpus and tarsus sections were scored by a board certified, independent pathologist for the criteria described in the materials and methods. Tabulated data represent mean±SD (standard deviation) values for the tarsus only. Statistics were performed using 2-way ANOVA analysis, *p<0.05; **p<0.01; ***p<0.001, N=5 mice per group tested. At the end of each experiment, front and hind paws (including carpus and tarsus) were removed from the body of the animal for histological analysis. Skin from the ends of the digits was removed and the metatarsal region skin perforated using surgical scissors to allow full decalcification. […] After 7-10 days of decalcification, samples were washed for 2 hours in distilled water and stored in 70% ethanol at 4° C. until ready to be processed. […] A total of five mice from each group were analyzed via histopathology, 10× representative images are shown for each group tested.

[12] = CIA model, body mass; type: in vivo, female DBA/1 mice
Description: FIGS. 9A and 9B: Depict the effect of treatment on body mass and serum anti-CII autoantibody concentration in a CIA model.
Female DBA/1 mice were injected with purified collagen type II in CFA i.d. (intradermal) then boosted with collagen type II in IFA s.c. (subcutaneous) on day 21 followed by a day 28 LPS injection i.p. (intraperitoneal) to induce arthritis (CIA). Mice that scored a ‘1’ or better for each paw were considered arthritic and entered into the study, treatments started after several days of full arthritis. Compound A was provided orally, b.i.d., for each dose tested; Dex was provided i.p. at 1.5 mg/kg three times a week; vehicle (PEG400+1% DMSO) was provided orally, b.i.d.

[13] = test system: JAK2 in HEL92 cells (phosphorylation of STAT5); experiment: Inhibition of STAT5 phosphorylation in HEL92 cells (western blot); type: cell-based; conditions: 1 hour, serum-free media
[14] = paw, 10 mg/kg p.o., read-out: concentration in paw
[15] = paw, 30 mg/kg p.o., read-out: concentration in paw
[16] = paw, 55 mg/kg p.o., read-out: concentration in paw
[17] = plasma, 10 mg/kg p.o., read-out: concentration in plasma
[18] = plasma, 30 mg/kg p.o., read-out: concentration in plasma
[19] = plasma, 55 mg/kg p.o., read-out: concentration in plasma
[20] = spleen, 10 mg/kg p.o., read-out: concentration in spleen
[21] = spleen, 30 mg/kg p.o., read-out: concentration in spleen
[22] = spleen, 55 mg/kg p.o., read-out: concentration in spleen

Chain of human TYK2 (P29597 whole entry): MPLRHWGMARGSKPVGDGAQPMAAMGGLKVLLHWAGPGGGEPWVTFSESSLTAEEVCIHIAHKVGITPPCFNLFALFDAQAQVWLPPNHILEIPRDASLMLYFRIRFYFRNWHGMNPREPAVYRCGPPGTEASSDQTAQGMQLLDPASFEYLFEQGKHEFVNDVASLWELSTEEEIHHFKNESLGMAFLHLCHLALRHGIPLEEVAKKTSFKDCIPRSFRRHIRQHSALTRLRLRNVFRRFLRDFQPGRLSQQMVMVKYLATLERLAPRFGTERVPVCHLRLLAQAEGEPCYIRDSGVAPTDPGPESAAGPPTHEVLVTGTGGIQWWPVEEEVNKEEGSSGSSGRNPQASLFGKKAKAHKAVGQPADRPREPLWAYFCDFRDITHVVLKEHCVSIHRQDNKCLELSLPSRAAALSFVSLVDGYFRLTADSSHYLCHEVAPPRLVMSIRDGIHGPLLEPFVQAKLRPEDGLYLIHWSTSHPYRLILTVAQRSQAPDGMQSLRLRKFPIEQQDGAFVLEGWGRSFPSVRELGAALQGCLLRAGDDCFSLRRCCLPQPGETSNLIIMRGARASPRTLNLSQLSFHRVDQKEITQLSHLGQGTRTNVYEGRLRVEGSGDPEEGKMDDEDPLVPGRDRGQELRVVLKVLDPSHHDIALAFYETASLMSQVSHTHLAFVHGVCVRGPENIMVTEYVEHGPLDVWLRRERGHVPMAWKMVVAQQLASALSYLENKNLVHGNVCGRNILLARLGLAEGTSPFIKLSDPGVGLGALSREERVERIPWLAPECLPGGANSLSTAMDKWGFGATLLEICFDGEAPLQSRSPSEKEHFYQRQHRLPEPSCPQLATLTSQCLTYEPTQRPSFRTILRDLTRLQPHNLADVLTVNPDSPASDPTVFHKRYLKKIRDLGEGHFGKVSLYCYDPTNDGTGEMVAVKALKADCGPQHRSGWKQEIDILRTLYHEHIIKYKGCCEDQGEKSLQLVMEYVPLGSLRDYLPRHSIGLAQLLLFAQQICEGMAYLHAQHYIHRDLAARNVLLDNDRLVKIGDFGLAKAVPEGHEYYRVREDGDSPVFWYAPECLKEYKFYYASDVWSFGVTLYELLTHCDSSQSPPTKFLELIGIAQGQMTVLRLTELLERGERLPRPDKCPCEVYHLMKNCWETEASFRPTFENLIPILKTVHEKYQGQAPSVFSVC
T1 sequence (P23458 whole entry): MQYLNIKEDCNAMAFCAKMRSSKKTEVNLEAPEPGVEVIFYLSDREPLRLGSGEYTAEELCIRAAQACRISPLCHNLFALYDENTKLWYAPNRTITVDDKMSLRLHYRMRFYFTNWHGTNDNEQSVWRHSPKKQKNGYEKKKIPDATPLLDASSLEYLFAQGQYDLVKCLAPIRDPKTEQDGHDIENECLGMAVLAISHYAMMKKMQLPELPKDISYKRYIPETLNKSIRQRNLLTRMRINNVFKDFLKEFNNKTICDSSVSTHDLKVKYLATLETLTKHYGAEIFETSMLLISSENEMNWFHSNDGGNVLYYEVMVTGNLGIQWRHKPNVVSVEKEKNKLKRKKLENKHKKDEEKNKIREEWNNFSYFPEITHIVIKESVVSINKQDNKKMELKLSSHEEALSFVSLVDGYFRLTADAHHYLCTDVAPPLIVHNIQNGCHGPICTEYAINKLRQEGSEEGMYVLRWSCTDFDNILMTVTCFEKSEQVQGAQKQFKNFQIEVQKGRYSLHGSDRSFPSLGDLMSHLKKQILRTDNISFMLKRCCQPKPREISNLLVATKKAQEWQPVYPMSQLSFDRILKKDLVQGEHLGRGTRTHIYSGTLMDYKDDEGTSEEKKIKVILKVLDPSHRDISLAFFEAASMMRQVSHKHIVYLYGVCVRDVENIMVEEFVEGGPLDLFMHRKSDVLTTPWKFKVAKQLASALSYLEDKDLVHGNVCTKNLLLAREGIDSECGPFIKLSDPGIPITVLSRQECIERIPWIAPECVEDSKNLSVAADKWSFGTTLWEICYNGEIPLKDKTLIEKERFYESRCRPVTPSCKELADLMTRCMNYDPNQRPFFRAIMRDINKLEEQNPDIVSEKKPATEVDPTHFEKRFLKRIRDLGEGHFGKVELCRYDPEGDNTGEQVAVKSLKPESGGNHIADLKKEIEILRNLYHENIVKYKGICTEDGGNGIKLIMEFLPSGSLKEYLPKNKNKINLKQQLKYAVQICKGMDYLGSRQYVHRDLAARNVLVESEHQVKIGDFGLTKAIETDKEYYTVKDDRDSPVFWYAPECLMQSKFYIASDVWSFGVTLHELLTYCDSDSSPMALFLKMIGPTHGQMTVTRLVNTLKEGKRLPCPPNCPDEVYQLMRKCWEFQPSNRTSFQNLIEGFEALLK
Chain of EGFR (P00533 25-1210, species assumed): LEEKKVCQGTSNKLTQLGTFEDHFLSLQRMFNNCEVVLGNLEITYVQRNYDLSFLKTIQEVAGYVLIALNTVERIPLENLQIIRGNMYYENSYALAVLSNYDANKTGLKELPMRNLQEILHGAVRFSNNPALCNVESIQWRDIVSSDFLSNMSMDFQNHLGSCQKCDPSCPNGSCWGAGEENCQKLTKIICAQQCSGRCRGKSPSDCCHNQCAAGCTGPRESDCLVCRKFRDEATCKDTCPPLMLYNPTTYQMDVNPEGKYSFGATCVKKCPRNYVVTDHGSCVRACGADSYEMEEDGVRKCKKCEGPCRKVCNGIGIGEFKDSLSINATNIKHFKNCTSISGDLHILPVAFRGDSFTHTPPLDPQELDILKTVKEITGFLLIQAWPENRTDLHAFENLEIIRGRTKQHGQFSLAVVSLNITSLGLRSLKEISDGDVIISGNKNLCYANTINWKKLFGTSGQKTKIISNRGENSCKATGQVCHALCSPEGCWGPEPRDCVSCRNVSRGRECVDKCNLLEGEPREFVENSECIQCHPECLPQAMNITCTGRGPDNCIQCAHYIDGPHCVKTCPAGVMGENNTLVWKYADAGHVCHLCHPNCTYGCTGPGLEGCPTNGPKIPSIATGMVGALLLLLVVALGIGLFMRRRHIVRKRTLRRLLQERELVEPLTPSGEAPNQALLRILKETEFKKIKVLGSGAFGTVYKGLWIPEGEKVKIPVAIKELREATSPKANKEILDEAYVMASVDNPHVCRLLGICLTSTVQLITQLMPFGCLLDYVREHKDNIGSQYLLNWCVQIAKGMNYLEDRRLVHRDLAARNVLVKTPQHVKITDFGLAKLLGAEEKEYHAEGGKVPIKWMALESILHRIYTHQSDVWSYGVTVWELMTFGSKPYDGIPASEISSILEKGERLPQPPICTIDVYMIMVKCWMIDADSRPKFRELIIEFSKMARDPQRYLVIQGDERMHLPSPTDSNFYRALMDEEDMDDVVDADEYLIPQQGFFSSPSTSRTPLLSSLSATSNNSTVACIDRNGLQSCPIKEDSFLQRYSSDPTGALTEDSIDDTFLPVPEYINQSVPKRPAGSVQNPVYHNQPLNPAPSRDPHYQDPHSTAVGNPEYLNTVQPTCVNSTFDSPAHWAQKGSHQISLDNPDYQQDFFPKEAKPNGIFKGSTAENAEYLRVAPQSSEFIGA

CN1CCN(c2cccc(Nc3nc4c(-c5ccc(S(C)(=O)=O)cc5)cccn4n3)c2)CC1 [Compound A, [8-(4-Methanesulfonyl-phenyl)-[1,2,4]triazolo[1,5-a]pyridin-2-yl]-[3-(4-methyl-piperazin-1-yl)-phenyl]-amine]
paw IL-6 concentration ([1]; CAIA experiment, 4 hours post dosing, p<0.05): reduction in paw IL-6
level of pro-inflammatory cytokines in paw extracts ([1]; CAIA, 55 mg/kg): significantly reduced the level of several of the cytokines
cytokine suppression over the study (IL-1β, IL-6, TNFα, IL-12) ([1]; CAIA, 55 mg/kg, p<0.01 vs vehicle): lowered and sustained cytokine suppression for the remainder of the study
level of pro-inflammatory cytokines in paw extracts ([1]; CAIA, 100 mg/kg): significantly reduced the level of several of the cytokines
dose dependence of cytokine reduction in paw extracts ([1]; CAIA, 30, 55 and 100 mg/kg, especially GM-CSF, IL-12, IL-2, IL-4): Dose-dependent reductions were observed for all cytokines tested
paw cytokine expression compared with Dex group ([1]; CAIA, several of the cytokines tested, p<0.05 vs vehicle): significantly decreased cytokine expression below the levels observed in the Dex treatment group
histological protection of the tarsus ([2]; 55 mg/kg): provided protection in the tarsus
histopathology scores, significance versus vehicle ([2]; 55 mg/kg, p<0.05): Significance was only observed for the degree of inflammation
histological protection of carpus and tarsus ([2]; 100 mg/kg): provided the best protection for both regions
histological protection of the tarsus ([2]; 100 mg/kg): provided protection in the tarsus
histopathology scores, significance versus vehicle ([2]; 100 mg/kg, p<0.01): Significance was only observed for the degree of inflammation
activity against EGFR in profiling panel [3]: lacked activity
inhibition of JAK2 in vivo (pSTAT5/STAT5) [4]: inhibit JAK2 in vivo
selectivity against TYK2 [5]: > 800 fold
share of the panel inhibited by >90% ([6]; 402 kinases): 9%
share of the panel inhibited by >99% ([6]; 402 kinases): 1%
selectivity score S(90)402 ([6]; score of Karaman et al): 0.09
selectivity score S(99)402 ([6]; score of Karaman et al): 0.01
concentration at 2 h [7, 14]: 214 ± 12.4 ng/mL
concentration at 6 h [7, 14]: 172 ± 48.7 ng/mL
concentration at 2 h [7, 15]: 508 ± 213 ng/mL
concentration at 6 h [7, 15]: 376 ± 84.7 ng/mL
concentration at 2 h [7, 16]: 660 ± 81.1 ng/mL
concentration at 6 h [7, 16]: 472 ± 74.3 ng/mL
concentration at 2 h [7, 17]: 1160 ± 48.1 ng/mL
concentration at 6 h [7, 17]: 433 ± 56.7 ng/mL
concentration at 2 h [7, 18]: 2040 ± 693 ng/mL
concentration at 6 h [7, 18]: 1310 ± 258 ng/mL
concentration at 2 h [7, 19]: 3160 ± 456 ng/mL
concentration at 6 h [7, 19]: 1480 ± 138 ng/mL
concentration at 2 h [7, 20]: 673 ± 102 ng/mL
concentration at 6 h [7, 20]: 273 ± 50.4 ng/mL
concentration at 2 h [7, 21]: 1330 ± 113 ng/mL
concentration at 6 h [7, 21]: 1170 ± 395 ng/mL
concentration at 2 h [7, 22]: 3900 ± 427 ng/mL
concentration at 6 h [7, 22]: 2350 ± 433 ng/mL
frequency of CB11-specific, IFNγ secreting T cells ([8]; 55 mg/kg b.i.d. p.o.): significant reduction in the frequency of CB11-specific, IFNγ secreting T cells
frequency of CB11-specific, IFNγ secreting T cells ([8]; 100 mg/kg b.i.d. p.o.): significant reduction in the frequency of CB11-specific, IFNγ secreting T cells
selectivity versus JAK1 [9]: > 40 fold
reduction in paw pSTAT3 compared with Dex ([10]; 30 mg/kg b.i.d., p<0.01 vs vehicle): significantly greater than that of Dex
reduction in paw pSTAT3 compared with Dex ([10]; 55 mg/kg b.i.d., p<0.001 vs vehicle): significantly greater than that of Dex
phospho-STAT3 levels in the paw ([10]; 2 hours after administration): nearly abolished
phospho-STAT3 levels in the paw ([10]; 6 hours post-administration): only slowly began to recover
paw pSTAT3 expression, remainder of the experiment ([10]; b.i.d. treatment): reduced pSTAT3 expression to the lower limits of the assay
histopathology parameters (matrix erosions, subchondral osteolysis, osteoproliferation, synovial proliferation, pannus formation, degree of inflammation) [11]: significantly decrease several parameters
body mass [12]: did not significantly change
inhibition of JAK2, phosphorylation of STAT5 [13]: shown to inhibit JAK2 in HEL92 cells
